Molecular target: PC-PLC (phosphatidylcholine-specific phospholipase C) (Bacillus cereus, UniProt P09598)
Experiment: fluorescence of dequenched Pyro-PtdEtn-BHQ hydrolysis, initial rate
Format: biochemical

PC-PLC (phosphatidylcholine-specific phospholipase C), sequence (P09598 39-283 limits assumed): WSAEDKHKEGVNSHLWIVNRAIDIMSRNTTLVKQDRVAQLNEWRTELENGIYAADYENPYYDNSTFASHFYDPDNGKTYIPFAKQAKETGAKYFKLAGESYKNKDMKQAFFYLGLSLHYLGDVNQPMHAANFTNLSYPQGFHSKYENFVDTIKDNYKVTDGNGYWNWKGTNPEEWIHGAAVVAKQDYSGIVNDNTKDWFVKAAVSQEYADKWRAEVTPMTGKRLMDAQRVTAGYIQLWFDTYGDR

## S=C(S)OC1CC2CC1C1CCCC21 (stereo not shown) [D609]
  IC50: 34 ± 8 µM
